Measured values published in US6265438A, “Vitamin compatible micronutrient supplement” (Heritage Technologies, LLC, priority 1999, dated 2001).
Like-named read-outs stand apart in the source and are kept apart here.

Legend:
[1] = Hygroscopicity (weight gain in 90% humidity); type: physicochemical; details: 140 hr
Procedure: Tribasic zinc sulfate can be prepared in a reaction system depicted in FIG. 1. Initially the reactor vessel contained 100 ml of dionized water.
Initially the reactor vessel contained 100 ml of an aqueous solution of ammonium sulfate (400 g/l).

[2] = 98 ° F., about 3 months, 131400 min, cited from earlier work
[3] = in vivo
Procedure: Chicks were fed the respective basal diets for 21 days. There were six pens each containing six chicks (three male and three female) for each of eight dietary treatments, for a total of 288 birds. Chicks were housed in two Petersime brooder units with stainless steel fittings and maintained on a 24-hour constant light schedule. Tap water containing no detectable zinc and feed were available ad libitum. Feed intake was recorded per pen. At the end of the experiment, birds were weighed individually, killed by cervical dislocation, and right tibia removed and frozen individually for zinc analysis.
Zinc concentrations in basal diet, water, zinc sources, and tibias were determined by flame atomic absorption spectrophotometry (Model 5000 with an AS-50 autosampler, Perkin-Elmer, Norwalk Conn. 06859-0156, Anonymous, 1982. Analytical Methods for Atomic Absorption Spectrophotometry. Perkin-Elmer Corp., Norwalk, Conn.). Diet samples were dried at 105° C. for 12 hours, then were dry ashed at 550° C. for 12 hours, solubilized in HCl, and filtered through 42 Whatman paper. Bones were boiled for approximately 10 minutes in deionized water and cleaned of all soft tissue. Tibias with associated cartilages were dried for 12 hours at 105° C., extracted in a Soxhlet apparatus with petroleum ether for 48 hours prior to ashing, and then solubilized as indicated above. Water was concentrated 10-fold by evaporation on a hotplate. Zinc sources were refluxed for 4 hours in 1:1 (v:v) concentrated HCl--HNO3 and filtered through 42 Whatman paper. Standards were matched for macroelement and acid concentrations as needed.
Data were analyzed by two-way ANOVA with a model that included zinc source, dietary zinc concentration, and their interaction. Each of the six pens were used as experimental units. Body weight, feed intake, and percentage of bone ash were also analyzed by the General Linear Models (GLM) (SAS Institute, 1990. SAS/STAT User's Guide (Release 6.04) SAS Institute Inc., Cary, N.C.) with an LSMEANS statement and PDIFF option to compare treatment means. Multiple linear regression of bone zinc concentration on added dietary zinc concentration was calculated using GLM. Relative bioavailability estimates were calculated using slope ratios.

[4] = Chick feeding trial: feed intake, body weight, bone ash; type: in vivo; details: chicks fed 3 weeks
Procedure: Feed intake was recorded per pen.
Relative bioavailability estimates were calculated using slope ratios.

[5] = Water solubility; type: physicochemical
[6] = Sandoval et al. (1997), similar sample, cited from earlier work
[7] = system: Camplobacter; test: Effect of zinc compounds on bacteria (colony count); type: cell-based, DMV strain; details: each of the bacteria tested
[8] = system: Salmonella; test: as above; type: cell-based, DMV strain; details: each of the bacteria tested
Procedure: (§1) A series of 42 test tubes were filled with 7 ml of distilled water, and the pH of the water was adjusted to a pH of 7. Fourteen tubes were selected, and 1 ml of an aqueous stock solution containing DMV (DelMarVa-Delaware, Maryland, Virginia source) strain of E. coli was added to each of the 14 tubes. A second set of 14 tubes was selected. To each tube in this second set was added 1 ml stock solution containing a DMV strain of salmonella. A third set of 14 tubes was then selected, and to each these tubes was added 1 ml of a stock solution containing a DMV strain of camplobacter.
(§2) Two tubes from each of the three sets served as controls, and no zinc compounds were added to these controls. […] The pH of half of the tubes from each set was adjusted to a pH of 2 by the addition of concentrated HCl; the pH of the other half of the tubes was maintained at a pH of 7. Sufficient water was added to each tube to provide a final volume of 10 ml. All the tubes were placed in an incubator that was maintained at 37° C. for three hours.
(§3) After three hours, 0.20 ml was taken from each of the tubes, of which 0.1 ml was used to inoculate a MacConley Ager plate and 0.1 ml was used to inoculate a Blood Ager plate. […] After 24 hours, each late was examined and the number of colonies on each plate was evaluated.

[9] = system: E. coli; test: as above; type: cell-based, DMV strain; details: each of the bacteria tested
Procedure: as §1, §2, §3

Row | Compound | Hygroscopicity [1] | Slope ± SE (regression of bone zinc concentration on added dietary zinc concentration) [3] | Body Weight ([4]; added Zn 200 ppm) | Bone Ash ([4]; added Zn 200 ppm) | Feed Intake ([4]; added Zn 200 ppm) | Body Weight ([4]; added Zn 400 ppm) | Bone Ash ([4]; added Zn 400 ppm) | Feed Intake ([4]; added Zn 400 ppm) | Bioavailability of zinc (in words) [3] | also measured
1 | O.O.O.O.O.O=S(=O)([O-])[O-].[Cu+2] [copper sulfate pentahydrate] | 14.4 % weight gain |  |  |  |  |  |  |  |  | 
2 | Cc1ncc(CO)c(CO)c1O [pyridoxine] |  |  |  |  |  |  |  |  |  | Loss of pyridoxine activity ([2]; multi-vitamin premixes containing inorganic trace minerals): about 55%; Loss of pyridoxine activity ([2]; premix containing no trace minerals): about 24%
3 | [Cl-].[Cl-].[Zn+2] [reagent grade zinc chloride, zinc chloride] | 126.5 % weight gain |  |  |  |  |  |  |  |  | 
4 | O.O.O.O.O.O.O.O=S(=O)([O-])[O-].[Zn+2] [reagent grade zinc sulfate, zinc sulfate heptahydrate, reference compound] | 36.1 % weight gain | 0.1193 ± 0.0316 | 574 g | 44.2 ash wt % | 710 g/bird | 559 g | 42.8 ash wt % | 679 g/bird |  | 
5 | O=S(=O)([O-])[O-].[Cu+2].[Cu+2].[Cu+2].[Cu+2].[OH-].[OH-].[OH-].[OH-].[OH-].[OH-] [tribasic copper sulfate] | about 1.73 % weight gain |  |  |  |  |  |  |  |  | Water solubility [5]: about 430 mg Cu per liter
6 | [O]=[Zn] [zinc oxide] |  | 0.0584 ± 0.0309 |  |  |  | 588 g | 44.4 ash wt % | 709 g/bird | lower (P<0.05) than that for other sources | Relative bioavailability value (slope ratio) ([3]; chicken, 30240 min): 49.0±10.1%; Relative value ± SE (slope ratio of bone zinc regression) ([3]; chicken, 30240 min): 49.0 ± 10.1; 95% Confidence Interval of relative value [3]: 28.7-69.2; Solubility in HCl ([6]; 60 min): 99%; Solubility in citric acid ([6]; 60 min): 69%; Solubility in neutral ammonium citrate ([6]; 60 min): 53%; Solubility in water [6]: insoluble
7 | basic zinc chloride |  | 0.1273 ± 0.0316 | 592 g | 45.1 ash wt % | 724 g/bird | 563 g | 43.6 ash wt % | 652 g/bird | equal to that of reagent grade zinc sulfate | 
8 | basic zinc sulfate |  | 0.1200 ± 0.0316 | 585 g | 44.4 ash wt % | 690 g/bird | 599 g | 44.5 ash wt % | 708 g/bird | equal to that of reagent grade zinc sulfate | 
9 | tribasic zinc chloride |  |  |  |  |  |  |  |  |  | Growth rate of bacteria (in words) [7]: significantly reduced the growth rate; Growth rate of bacteria (in words) [8]: significantly reduced the growth rate; Growth rate of bacteria (in words) [9]: significantly reduced the growth rate
10 | tribasic zinc sulfate | about 4.65 % weight gain |  |  |  |  |  |  |  |  | Water solubility [5]: about 15 mg zinc per liter
